The target in one experiment is T1, H2 (Homo sapiens, UniProt P25021).
T1 construct: purchased NIMH Psychoactive Drug Screening Program (PDSP)
Briefly: PDSP primary binding H2. To be noted: primary binding, 10,000 nM; last figure of the line = mean of the 4 before it; read-out: H2, PDSP raw data, mean. The procedure: (§1) To determine if any off-target receptor-binding effects are present, all the novel ligands were sent to the National Institute of Mental Health (NIMH), Psychoactive Drug Screening Program (PDSP). The ligands were screened over a panel of 47 receptors, ion channels, and transporters to determine any other possible interactions with […]. The hERG-binding was also determined. […] No binding of the test compounds to calcium channels was observed. […] It is necessary to screen the compounds for hERG-binding during the early process of drug discovery. The unintentional binding of many drugs to hERG can cause blockade of hERG K+ channels in the heart, which can cause many side effects including cardiac arrhythmias and sudden death. […] All of the α5 imidazodiazepines were tested for hERG-binding.
(§2) The NIMH PDSP assay protocol book [https://kidbdev.med.unc.edu/databases/PDSP%20Protocols%20II%202013-03-28.pdf accessed on 23 April 2023]. describes the protocols for primary and secondary radio-ligand binding assays. These assays were carried out in a final volume of 125 µL per well in the appropriate binding buffer.
(§3) The binding of a ligand to a receptor, ion channel, or transporter was determined in the […] of 10 µM of the appropriate reference compound. […] Plates were incubated in the dark for 90 min at rt, and the reactions were stopped by vacuum filtration onto 0.3% polyethyleneimine (PEI) soaked 96-well filter mats using a 96-well Filtermateharvester. This was followed by three washes with cold PBS buffer. Radioactivity was then counted on a Microbeta counter. Nonlinear regression was used to analyze the data with N = 6 replicates.

The target of a further experiment is T2, V1A (Homo sapiens, UniProt P37288).
T2 construct: purchased NIMH Psychoactive Drug Screening Program (PDSP)
Briefly: PDSP primary binding V1A. Particulars: primary binding, 10,000 nM; last figure of the line = mean of the 4 before it; read-out: V1A, PDSP raw data, mean. The procedure:
as §1, §2, §3

Another experiment has as its target T3, NTS1 (Homo sapiens, UniProt P30989).
T3 construct: purchased NIMH Psychoactive Drug Screening Program (PDSP)
Briefly: PDSP primary binding NTS1. To be noted: primary binding, 10,000 nM; last figure of the line = mean of the 4 before it; read-out: NTS1, PDSP raw data, mean. The protocol: as §1, §2, §3

The target of another experiment is T4, M4 D (Homo sapiens, UniProt P08173, A203G/Y113C).
T4 construct: purchased NIMH Psychoactive Drug Screening Program (PDSP)
T4 sequence (P08173 1-479 Y113C/A203G): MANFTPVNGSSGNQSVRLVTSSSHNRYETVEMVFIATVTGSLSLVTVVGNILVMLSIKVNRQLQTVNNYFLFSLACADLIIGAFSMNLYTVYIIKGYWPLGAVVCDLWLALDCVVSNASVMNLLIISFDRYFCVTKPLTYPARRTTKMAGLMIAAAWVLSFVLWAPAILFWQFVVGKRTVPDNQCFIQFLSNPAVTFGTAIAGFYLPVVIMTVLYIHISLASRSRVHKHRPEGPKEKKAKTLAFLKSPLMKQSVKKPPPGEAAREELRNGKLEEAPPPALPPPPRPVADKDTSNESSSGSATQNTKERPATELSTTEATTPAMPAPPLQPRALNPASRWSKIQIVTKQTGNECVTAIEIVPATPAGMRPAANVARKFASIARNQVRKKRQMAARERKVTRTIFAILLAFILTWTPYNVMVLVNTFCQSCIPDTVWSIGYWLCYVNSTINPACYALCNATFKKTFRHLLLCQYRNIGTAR
Briefly: PDSP primary binding M4 D. To be noted: primary binding, 10,000 nM; last figure of the line = mean of the 4 before it; read-out: M4 D, PDSP raw data, mean. The procedure: as §1, §2, §3

In the next experiment the test system is Ca channel human. Briefly: PDSP primary binding Ca channel. Particulars: primary binding, 10,000 nM; last figure of the line = mean of the 4 before it. The protocol: as §1, §2, §3
The next experiment deals with Sigma 1. Briefly: PDSP primary binding Sigma 1. Particulars: primary binding, 10,000 nM; last figure of the line = mean of the 4 before it. The procedure:
as §1, §2, §3

For a further experiment, the target named is T5, M5 (Homo sapiens, UniProt P08912).
T5 construct: purchased NIMH Psychoactive Drug Screening Program (PDSP)
T5 sequence (P08912 1-532): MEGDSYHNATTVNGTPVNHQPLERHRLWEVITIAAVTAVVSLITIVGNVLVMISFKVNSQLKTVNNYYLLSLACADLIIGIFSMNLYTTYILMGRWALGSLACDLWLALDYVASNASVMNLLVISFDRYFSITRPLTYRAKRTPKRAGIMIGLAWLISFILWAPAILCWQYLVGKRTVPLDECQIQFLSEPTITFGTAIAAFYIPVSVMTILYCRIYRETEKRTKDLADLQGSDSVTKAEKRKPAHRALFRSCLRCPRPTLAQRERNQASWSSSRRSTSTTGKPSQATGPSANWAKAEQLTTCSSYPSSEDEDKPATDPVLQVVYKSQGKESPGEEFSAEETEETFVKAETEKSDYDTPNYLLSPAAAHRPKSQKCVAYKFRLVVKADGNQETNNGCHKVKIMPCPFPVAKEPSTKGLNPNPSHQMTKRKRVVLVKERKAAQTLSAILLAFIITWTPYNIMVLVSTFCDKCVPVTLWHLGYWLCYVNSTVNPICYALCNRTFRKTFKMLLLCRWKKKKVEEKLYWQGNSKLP
Briefly: PDSP primary binding M5. To be noted: primary binding, 10,000 nM; last figure of the line = mean of the 4 before it; read-out: M5, PDSP raw data, mean. The procedure:
as §1, §2, §3

Another experiment concerns the target T6, 5-HT6 (Homo sapiens, UniProt P50406).
T6 construct: purchased NIMH Psychoactive Drug Screening Program (PDSP)
Briefly: PDSP primary binding 5-HT6. Particulars: 1.5 h; primary binding, 10,000 nM; last figure of the line = mean of the 4 before it; read-out: 5-HT6, PDSP raw data, mean. The procedure:
as §1, §2, §3

A further experiment concerns the target T7, Alpha4Beta4 (Rattus norvegicus, UniProt P09483+P12392).
T7 construct: purchased NIMH Psychoactive Drug Screening Program (PDSP)
Briefly: PDSP primary binding Alpha4Beta4. Particulars: primary binding, 10,000 nM; last figure of the line = mean of the 4 before it; read-out: Alpha4Beta4, PDSP raw data, mean. The procedure: as §1, §2, §3

T6 sequence (P50406 whole entry): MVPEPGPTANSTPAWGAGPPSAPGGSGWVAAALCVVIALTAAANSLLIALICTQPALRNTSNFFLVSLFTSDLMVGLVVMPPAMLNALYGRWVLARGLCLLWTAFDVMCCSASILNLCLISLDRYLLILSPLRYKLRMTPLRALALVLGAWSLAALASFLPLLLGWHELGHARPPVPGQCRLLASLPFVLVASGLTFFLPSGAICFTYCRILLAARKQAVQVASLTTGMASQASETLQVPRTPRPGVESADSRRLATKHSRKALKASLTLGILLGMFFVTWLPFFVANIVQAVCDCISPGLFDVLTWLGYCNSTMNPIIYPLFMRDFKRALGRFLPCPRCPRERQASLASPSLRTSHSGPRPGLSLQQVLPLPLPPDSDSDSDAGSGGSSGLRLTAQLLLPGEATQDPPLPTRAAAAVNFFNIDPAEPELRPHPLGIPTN
T1 sequence (P25021 whole entry): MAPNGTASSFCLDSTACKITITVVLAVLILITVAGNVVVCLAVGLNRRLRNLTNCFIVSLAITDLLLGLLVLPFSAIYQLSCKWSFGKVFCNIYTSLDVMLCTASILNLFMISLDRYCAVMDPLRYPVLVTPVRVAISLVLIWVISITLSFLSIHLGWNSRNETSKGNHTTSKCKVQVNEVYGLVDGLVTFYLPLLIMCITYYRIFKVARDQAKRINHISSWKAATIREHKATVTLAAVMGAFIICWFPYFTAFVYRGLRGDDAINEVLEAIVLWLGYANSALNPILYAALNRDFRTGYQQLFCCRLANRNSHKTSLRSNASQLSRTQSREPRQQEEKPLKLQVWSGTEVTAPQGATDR
T7 sequence (P09483 31-630): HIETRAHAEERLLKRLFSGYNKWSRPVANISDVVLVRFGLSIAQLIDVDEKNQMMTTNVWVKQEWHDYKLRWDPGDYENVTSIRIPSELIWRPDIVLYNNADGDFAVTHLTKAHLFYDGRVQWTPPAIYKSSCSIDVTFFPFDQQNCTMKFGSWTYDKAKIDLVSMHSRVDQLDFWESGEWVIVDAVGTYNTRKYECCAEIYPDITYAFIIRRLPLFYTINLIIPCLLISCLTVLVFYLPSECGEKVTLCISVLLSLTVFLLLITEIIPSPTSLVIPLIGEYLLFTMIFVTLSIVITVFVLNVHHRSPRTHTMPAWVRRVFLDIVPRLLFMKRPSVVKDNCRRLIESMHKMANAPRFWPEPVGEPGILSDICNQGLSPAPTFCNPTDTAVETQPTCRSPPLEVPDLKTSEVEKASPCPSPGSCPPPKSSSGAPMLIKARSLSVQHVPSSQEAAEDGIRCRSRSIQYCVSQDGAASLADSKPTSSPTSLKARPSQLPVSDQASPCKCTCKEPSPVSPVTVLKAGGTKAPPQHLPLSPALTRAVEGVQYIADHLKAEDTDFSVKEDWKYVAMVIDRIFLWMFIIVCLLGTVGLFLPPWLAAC
T7 sequence (P12392 21-495): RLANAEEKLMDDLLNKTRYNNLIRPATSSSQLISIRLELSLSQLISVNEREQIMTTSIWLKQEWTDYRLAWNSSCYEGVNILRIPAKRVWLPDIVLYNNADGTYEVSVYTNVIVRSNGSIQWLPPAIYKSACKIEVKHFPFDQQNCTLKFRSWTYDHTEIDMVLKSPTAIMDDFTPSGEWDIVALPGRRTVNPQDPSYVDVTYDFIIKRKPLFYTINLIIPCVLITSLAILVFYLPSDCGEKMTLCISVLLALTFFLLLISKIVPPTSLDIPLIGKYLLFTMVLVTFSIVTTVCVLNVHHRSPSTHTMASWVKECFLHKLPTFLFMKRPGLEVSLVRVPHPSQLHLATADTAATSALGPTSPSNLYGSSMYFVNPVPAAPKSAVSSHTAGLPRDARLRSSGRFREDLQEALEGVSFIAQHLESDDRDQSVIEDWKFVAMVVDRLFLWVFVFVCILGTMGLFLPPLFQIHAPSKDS
T2 sequence (P37288 whole entry): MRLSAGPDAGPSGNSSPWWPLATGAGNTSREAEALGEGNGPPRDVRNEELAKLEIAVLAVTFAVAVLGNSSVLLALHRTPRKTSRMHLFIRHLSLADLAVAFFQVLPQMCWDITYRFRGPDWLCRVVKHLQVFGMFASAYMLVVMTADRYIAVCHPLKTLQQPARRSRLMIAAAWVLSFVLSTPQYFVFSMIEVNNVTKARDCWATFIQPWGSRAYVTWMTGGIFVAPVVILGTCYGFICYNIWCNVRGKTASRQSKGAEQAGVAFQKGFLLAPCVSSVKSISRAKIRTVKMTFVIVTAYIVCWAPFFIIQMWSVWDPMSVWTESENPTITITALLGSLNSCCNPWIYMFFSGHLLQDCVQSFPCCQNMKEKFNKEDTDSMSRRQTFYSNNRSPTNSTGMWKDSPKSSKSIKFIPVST
T3 sequence (P30989 whole entry): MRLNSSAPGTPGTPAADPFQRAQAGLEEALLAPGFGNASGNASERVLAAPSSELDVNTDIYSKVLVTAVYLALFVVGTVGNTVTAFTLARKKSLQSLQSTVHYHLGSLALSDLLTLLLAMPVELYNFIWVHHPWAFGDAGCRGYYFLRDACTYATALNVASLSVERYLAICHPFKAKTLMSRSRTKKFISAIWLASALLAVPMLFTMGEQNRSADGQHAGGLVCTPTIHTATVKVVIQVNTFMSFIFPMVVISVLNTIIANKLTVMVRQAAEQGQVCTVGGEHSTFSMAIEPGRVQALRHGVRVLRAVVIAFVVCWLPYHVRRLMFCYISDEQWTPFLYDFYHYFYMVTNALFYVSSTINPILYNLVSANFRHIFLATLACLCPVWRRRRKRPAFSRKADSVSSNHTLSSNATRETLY

For the compound `C[C@H]1N=C(c2ccccc2F)c2cc(Cl)ccc2-n2cnc(-c3nc(C4CC4)no3)c21` [Compound 38, (R)-5-(8-Chloro-6-(2′-fluorophenyl)-4-methyl-4H-benzo[f]imidazo[1,5-a][1,4]diazepin-3-yl)-3-cyclopropyl-1,2,4-oxadiazole], the inhibition at 10 µM is 6.81% on H2; 4.3% at V1A; -13.2% on NTS1; -18.7% on M4 D; -5.18% on M5; -6.37% on 5-HT6. In addition, the inhibition at 10 µM at Alpha4Beta4 turned out to be 8.62%. Further, the “Ca channel human, PDSP raw data, mean” value in the experiment on Ca channel human turned out to be 30.64%. In addition, in the experiment on Sigma 1, the “Sigma 1, PDSP raw data, mean” value is -1.51%.

Turning to `CCc1noc(-c2ncn3c2CN=C(c2ccccc2F)c2cc(C4CC4)ccc2-3)n1` [Compound 44, 5-(8-Cyclopropyl-6-(2′-fluorophenyl)-4H-benzo[f]imidazo[1,5-a][1,4]diazepin-3-yl)-3-ethyl-1,2,4-oxadiazole], the inhibition at 10 µM is 1.55% at H2; 21.3% at V1A; -62.2% on NTS1; 35.9% at M4 D; -14.1% at M5; 27.6% at 5-HT6. Further, the inhibition at 10 µM on Alpha4Beta4 worked out at 10.6%. Moreover, in the experiment on Ca channel human, the “Ca channel human, PDSP raw data, mean” value amounted to 36.68%. The “Sigma 1, PDSP raw data, mean” value in the experiment on Sigma 1 came to 53.37%.

As to `CCc1noc(-c2ncn3c2[C@@H](C)N=C(c2ccccc2F)c2cc(C4CC4)ccc2-3)n1` [Compound 46, (R)-5-(8-Cyclopropyl-6-(2′-fluorophenyl)-4-methyl-4H-benzo[f]imidazo[1,5-a][1,4]diazepin-3-yl)-3-ethyl-1,2,4-oxadiazole], the inhibition at 10 µM at H2 was 6.98%; at V1A, -6.74%; at NTS1, -29.8%; at M4 D it was 33.1%; on M5, 5.69%; at 5-HT6, 71.5%. Also, the inhibition at 10 µM on Alpha4Beta4 was 14.2%. In addition, the “Ca channel human, PDSP raw data, mean” value in the experiment with Ca channel human came out at 36.53%. In the experiment on Sigma 1, the “Sigma 1, PDSP raw data, mean” value turned out to be 34.74%.

Source of the values: article PMC10303271, “Synthesis and Receptor Binding Studies of α5 GABAAR Selective Novel Imidazodiazepines Targeted for Psychiatric and Cognitive Disorders” (Molecules, 2023).
